As usually defined, the MIC is the smallest concentration in the dilution series that meets the test's criterion for growth inhibition.

The values below come from US11066447B2, “Aureobasidium derivatives and methods of synthesis” (AureoGen Biosciences, Inc., priority 2016, dated 2021).

Values after ≈ are worked out from the molar mass of the structure shown. Values joined by “and” are separate entries in the source; they are usually repeats but may differ in a detail not shown here. Equal entries are not always repeated. Where two headings read alike, the source gives them in different places. Numbered stars: 1 amine (or outer) side, 2 acyl side, 3 side chain; on linkers, the order of the positions; unused ones are H or OH. Square brackets hold non-standard residues; d marks the D form. Peptide text beside a SMILES is read from it. ξ: configuration not given here. X4 = CN1CCN(c2cc(-c3cccc(C[C@@H](C(=O)[*:2])N(C)[*:1])c3)ccn2)CC1; X5 = CN([C@@H](Cc1cccc(-c2ccc3cnccc3c2)c1)C(=O)[*:2])[*:1]; X34 = CC[C@@H](C)[C@@H](O[*:1])C(=O)[*:2]; Hmp(2R,3S) = CC[C@H](C)[C@@H](O)C(=O)O; NMeVal(β-OH) = CN[C@H](C(=O)O)C(C)(C)O; X6 = CCC(C)[C@@H](O[*:1])C(=O)[*:2]; NMeF = CN[C@@H](Cc1ccccc1)C(=O)O; aIle = CC[C@@H](C)[C@H](N)C(=O)O; Ile(3ξ) = CCC(C)[C@H](N)C(=O)O; NMeV = CN[C@H](C(=O)O)C(C)C; ξL = CC(C)CC(N)C(=O)O

For test [1], the system named is A. fumigatus MMX 5280 ATCC MYA-3626. The test can be described thus: MIC/MEC assay (CLSI microdilution). The test is classed as cell-based, Aspergillus fumigatus. On the procedure:
(§1) Aureobasidin and test compounds (i.e., AbA derivatives of the present invention) were received from Kalexsyn, Inc. (Kalamazoo, Mich.) as powder and were stored at 4° C. until the day of assay. […] amphotericin was obtained from Sigma Aldrich and stored under like conditions. […] Ethanol (95%) was used as a solvent and diluent for all AbA compounds. Amphotericin B was tested from 0.06-64 μg/mL. Amphotericin B (Sigma Aldrich; St. Louis, Mo.; Cat No. A9528-100MG, Lot No. 120M4087) was dissolved and diluted with dimethylsulfoxide (DMSO; Sigma Aldrich; St. Louis, Mo.; Cat No. 472301 Lot No. SHBD2072V).
(§2) The solvents were added to the test agents and the stock solutions stood for approximately 1 hr at room temperature prior to use to auto sterilize. Stock solutions were prepared at 40× the desired top concentration in the test plate.
(§3) All of the test isolates were originally received from either the American Type Culture Collection (ATCC), clinical labs, or directly from Aureogen Biosciences. Organisms stored by Micromyx were cultured on agar medium appropriate to each organism. Colonies were picked by swab from the isolation plates and put into suspension in appropriate broth containing cryoprotectant. The suspensions were aliquoted into cryogenic vials and maintained at −80° C.
(§4) Prior to testing, Candida isolates were streaked from the frozen vials on Sabouraud dextrose agar. The yeast isolates were incubated for 48 hours at 35° C. before use. The fungal isolates were obtained from enumerated fungal stocks previously prepared at Micromyx and stored in phosphate buffered saline at 4° C.
(§5) Test Media. The medium employed for the MIC assay was RPMI-1640 medium from HyClone Laboratories (Logan, Utah; Lot No. AYB60287A). The medium was prepared according to Clinical and Laboratory Standards Institute (CLSI) guidelines (1, 2), and modified to include 0.002% Tween-80. Candida parapsilosis ATCC 22019 (MMX 2323) and Aspergillus fumigatus ATCC MYA-3626 (MMX 5280) were also tested without Tween-80 to provide data for the quality control of amphotericin B in accordance with CLSI (3) and to assess the effect of Tween-80 on the activity of the test agents.
(§6) Test Procedure. The MIC assay method followed the procedure described by CLSI (1, 2) and employed automated liquid handlers to conduct serial dilutions and liquid transfers. Automated liquid handlers included the Multidrop 384 (Labsystems, Helsinki, Finland), Biomek 2000 and Biomek FX (Beckman Coulter, Fullerton Calif.). The wells in columns 2-12 in standard 96-well microdilution plates (Costar 3795) were filled with 150 μl of the appropriate diluent (95% EtOH for investigational compounds, 100% DMSO for amphotericin B). These assay plates would become the ‘mother plates’ from which the assay ‘daughter plates’ would be prepared. The drugs (300 μL at 40× the desired top concentration in the test plates) were dispensed into the appropriate well in Column 1 of the mother plates. The Biomek 2000 was used to make two-fold serial dilutions through Column 11 in the “mother plate”. The wells of Column 12 contained no drug and served as the organism growth control wells.
(§7) The daughter plates were loaded with 185 μL per well on the Multidrop 384 with RPMI plus 0.002% Tween-80 or RPMI containing no Tween-80 for the testing of the two QC isolates. The daughter plates were prepared on the Biomek FX instrument which transferred 5 μL of drug solution from each well of a mother plate to each corresponding well of each daughter plate in a single step.
(§8) A standardized inoculum of each organism was prepared per CLSI methods (1, 2). For the Candida isolates, colonies were picked from the streak plate and a suspension was prepared in RPMI to equal a 0.5 McFarland standard. This suspension was diluted 1:100 in RPMI resulting in a final concentration of approximately 0.5-2.5×10^3 CFU/mL. […]

The subject of test [2] is C. parapsilosis MMX 2323 ATCC 22019. Nature of the test: MIC assay (CLSI microdilution). The format is cell-based, Candida parapsilosis. How it is done:
as §1, §2, §3, §4, §5, §6, §7, §8
For orientation: In broth dilution the organism is exposed to a series of concentrations in liquid medium.

Test [3] deals with C. albicans MMX 2000 ATCC 10231. Nature of the test: MIC assay (CLSI microdilution). The format is cell-based. To be noted: RPMI plus 0.002% Tween-80. How it is done:
as §1, §2, §3, §4, §5, §6, §7, §8

The test system of test [4] is C. neoformans MMX 0634 ATCC 90112. Nature of the test: MIC assay (CLSI microdilution). The format is cell-based. On the procedure:
as §1, §2, §3, §4, §5, §6, §7, §8

For test [5], the system named is A. fumigatus MMX 6781 ATCC MYA-4609. Nature of the test: MIC/MEC assay (CLSI microdilution). The format is cell-based. On the procedure:
as §1, §2, §3, §4, §5, §6, §7, §8

Test [6] has as its system A. niger MMX 0624 ATCC 16888. Nature of the test: MIC/MEC assay (CLSI microdilution). The format is cell-based. How it is done:
as §1, §2, §3, §4, §5, §6, §7, §8

Test [7] concerns A. fumigatus MMX 6782 ATCC 13073. The test can be described thus: MIC/MEC assay (CLSI microdilution). The format is cell-based. On the procedure: as §1, §2, §3, §4, §5, §6, §7, §8
A further test concerns A. flavus MMX 5948. Nature of the test: MIC/MEC assay (CLSI microdilution). The test is classed as cell-based. How it is done: as §1, §2, §3, §4, §5, §6, §7, §8
Another test relates to A. fumigatus MMX 5944. The test can be described thus: MIC/MEC assay (CLSI microdilution). The test is classed as cell-based. On the procedure:
as §1, §2, §3, §4, §5, §6, §7, §8

Test [8] concerns A. fumigatus from Aureogen. The test can be described thus: MIC/MEC assay (CLSI microdilution). The test is classed as cell-based. How it is done: as §1, §2, §3, §4, §5, §6, §7, §8
The mark [9] stands for this setting: RPMI plus 0.002% Tween-80, 48 hr.
The mark [10] stands for this setting: Aspergillus fumigatus, 48 h, RPMI plus 0.002% Tween-80, read-out: MIC.

Consider `CC[C@@H](C)[C@@H]1NC(=O)[C@@H]2CCCN2C(=O)[C@H](Cc2ccccc2)N(C)C(=O)[C@H](Cc2ccccc2)NC(=O)[C@H](C(C)C)N(C)C(=O)[C@@H]([C@H](C)CC)OC(=O)[C@H](C(C)(C)O)N(C)C(=O)[C@H](CC(C)C)NC(=O)[C@H](C(C)C)N(C)C1=O` [Aureobasidin A, reference compound] (cyclo(F[NMeF]P[aIle][NMeV]L[NMeVal(β-OH)][X34][NMeV])), for which the MEC in test [1] (setting [9]) was >64/>64 μg/mL; in test [1] (Without Tween-80, 48 hr) it was >64/>64 μg/mL; in test [5] (setting [9]), >64/>64 μg/mL; in test [6] (setting [9]) it was >64/>64 μg/mL; in test [7] (setting [9]), 2 µg/mL; in the test on A. flavus MMX 5948 (setting [9]), >64/>64 μg/mL. In addition, the MEC with A. fumigatus MMX 5944 (setting [9]) amounted to 2 µg/mL. Also, the MIC is >64/>64 μg/mL in test [1] (setting [9]); >64/>64 μg/mL in test [1] (Without Tween-80, 48 hr); 0.008 µg/mL in [2] (RPMI plus 0.002% Tween-80); 0.25 µg/mL (≈ 0.227 µM) in test [2] (Without Tween-80); not above 0.002 µg/mL in test [3]; 0.06 µg/mL in test [4] (RPMI plus 0.002% Tween-80). The MIC in test [5] (setting [9]) is >64/>64 μg/mL; in [6] (setting [9]), >64/>64 μg/mL; in [7] (setting [9]), more than 64 µg/mL; in the test with A. flavus MMX 5948 (setting [9]) it was >64/>64 μg/mL; in the test on A. fumigatus MMX 5944 (setting [9]), more than 64 µg/mL.

Regarding `CCC(C)[C@@H]1NC(=O)[C@@H]2CCCN2C(=O)[C@H](Cc2cccc(-c3ccc4cnccc4c3)c2)N(C)C(=O)[C@H](Cc2ccccc2)NC(=O)[C@H](C(C)C)N(C)C(=O)[C@@H](C(C)CC)OC(=O)[C@H](C(C)(C)O)N(C)C(=O)C(CC(C)C)NC(=O)[C@H](C(C)C)N(C)C1=O` (stereo partly drawn) [Compound 6] (cyclo(F[X5]P[Ile(3ξ)][NMeV][ξL][NMeVal(β-OH)][X6][NMeV])), the minimal effective concentration in test [1] (Aspergillus fumigatus, 48 h, read-out: MEC, RPMI plus 0.002% Tween-80) came to 1 µg/mL; in test [1] (Aspergillus fumigatus, 48 h, read-out: MEC, Without Tween-80), 2 µg/mL; in test [6] (Aspergillus niger, ATCC16888, 48 h, read-out: MEC, RPMI plus 0.002% Tween-80) it was 0.12 µg/mL; in test [7] (Aspergillus fumigatus, ATCC13073, 48 h, read-out: MEC, RPMI plus 0.002% Tween-80), 0.25 µg/mL. The MIC was more than 64 µg/mL in [1] (Without Tween-80, 48 hr); 0.12 µg/mL in test [2] (ATCC22019, RPMI plus 0.002% Tween-80); 1 µg/mL (≈ 0.814 µM) in test [2] (ATCC22019, Without Tween-80); 0.12 µg/mL in test [6] (Aspergillus niger, ATCC16888, 48 h, RPMI plus 0.002% Tween-80); 0.25 µg/mL with A. flavus MMX 5948 (Aspergillus flavus, MMX5948, 48 h, RPMI plus 0.002% Tween-80). The MEC in the test with A. fumigatus MMX 5944 (setting [9]) was determined as 0.5 µg/mL.

For the compound `CC[C@H](C)[C@@H]1NC(=O)[C@@H]2CCCN2C(=O)[C@H](Cc2cccc(-c3ccnc(N4CCN(C)CC4)c3)c2)N(C)C(=O)[C@H](Cc2ccccc2)NC(=O)[C@H](C(C)C)N(C)C(=O)[C@@H]([C@@H](C)CC)OC(=O)[C@H](C(C)(C)O)N(C)C(=O)[C@H](CC(C)C)NC(=O)[C@H](C(C)C)N(C)C1=O` [Compound 15] (cyclo(F[X4]PI[NMeV]L[NMeVal(β-OH)][Hmp(2R,3S)][NMeV])), the minimal effective concentration in test [1] (Aspergillus fumigatus, 48 h, RPMI plus 0.002% Tween-80, read-out: MEC) came out at 0.12 µg/mL; in [8] (Aspergillus fumigatus, 48 h, RPMI plus 0.002% Tween-80), 0.06 µg/mL; in [5] (Aspergillus fumigatus, RPMI plus 0.002% Tween-80, 48 hr), 0.12 µg/mL; in the test on A. fumigatus MMX 5944 (Aspergillus fumigatus, MMX5944, 48 h, RPMI plus 0.002% Tween-80), 0.06 µg/mL. For the same compound, the MIC came to 0.25 µg/mL in test [1] (setting [10]); 1 µg/mL (≈ 0.783 µM) in [1] (Aspergillus fumigatus, 48 h, Without Tween-80, read-out: MIC); 2 µg/mL (≈ 1.57 µM) in [1] (Without Tween-80, 48 hr); 0.03 µg/mL in test [2] (ATCC22019, RPMI plus 0.002% Tween-80, read-out: MIC); 0.5 µg/mL (≈ 0.392 µM) in [2] (ATCC22019, Without Tween-80, read-out: MIC); 0.5 µg/mL (≈ 0.392 µM) in test [2] (Without Tween-80). Moreover, the MIC in [4] (Cryptococcus neoformans, ATCC90112, RPMI plus 0.002% Tween-80, read-out: MIC) came to 0.06 µg/mL; in test [8] (setting [10]) it was 0.25 µg/mL; in test [8] (setting [9]), 0.25 µg/mL; in test [5] (setting [10]), 0.25 µg/mL; in [6] (Aspergillus niger, ATCC16888, 48 h, RPMI plus 0.002% Tween-80, read-out: MIC), 0.03 µg/mL; in test [7] (Aspergillus fumigatus, ATCC13073, 48 h, RPMI plus 0.002% Tween-80, read-out: MIC), 0.5 µg/mL. The MIC in the test with A. flavus MMX 5948 (Aspergillus flavus, MMX5948, 48 h, RPMI plus 0.002% Tween-80, read-out: MIC) came to 0.25 µg/mL; in the test on A. flavus MMX 5948 (setting [9]) it was 0.25 µg/mL; in the test with A. fumigatus MMX 5944 (Aspergillus fumigatus, MMX5944, 48 h, RPMI plus 0.002% Tween-80, read-out: MIC), 0.5 µg/mL. The MEC in [1] (Without Tween-80, 48 hr) is 1/1 μg/mL and 1 μg/mL.
